Source: publication PMC7006651, “Effect of 6-Benzoyl-benzothiazol-2-one scaffold on the pharmacological profile of α-alkoxyphenylpropionic acid derived PPAR agonists” (Journal of Enzyme Inhibition and Medicinal Chemistry, 2020)

Experiments:
human PPARγ [1] = biological target: T1, human PPARγ (Homo sapiens, UniProt P37231); experiment: Gene reporter (transactivation) assay, Cos-7 cells transfected with pGal4-hPPARγ; assay type: cell-based; conditions: Cos-7 cells, 24 h; for Emax: COS-7, 24 h, Emax relative to maximum activation with rosiglitazone (1 μM) = 100%, read-out: hPPAR gene reporter γGal4 (%); for EC50: GAL4 chimeric hPPARγ, read-out: hPPAR gene reporter γEC50;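 as to all read-outs here: luciferase reporter (pG5-TK) activity normalised to cotransfected β-galactosidase, cells exposed to increasing compound concentrations in DMEM with 0.2% FCS, DMSO vehicle as control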
T1 construct: expressed in transfected cells; host or cells: Cos-7
T1 sequence (P37231 238-503 limits assumed): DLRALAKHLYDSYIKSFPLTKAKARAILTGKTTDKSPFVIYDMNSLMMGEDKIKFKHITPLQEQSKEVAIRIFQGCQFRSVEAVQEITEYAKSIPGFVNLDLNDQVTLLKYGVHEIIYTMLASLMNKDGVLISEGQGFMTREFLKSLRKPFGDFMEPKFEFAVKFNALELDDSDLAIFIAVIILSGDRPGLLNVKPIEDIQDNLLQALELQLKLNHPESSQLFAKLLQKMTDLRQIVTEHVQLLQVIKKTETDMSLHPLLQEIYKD
Experimental: (§1) Cos-7 cells were transiently transfected with luciferase reporter plasmid (pG5-TK-pGL3) in the presence of pGal4-hPPARα or pGal4-hPPARγ (these vectors express chimeric proteins containing the Gal4 DNA-binding domain fused to the human PPARα or PPARγ ligand binding domain coding sequence) expression vector. […] Cells were transfected in OptiMEM without FCS for 3 h at 37°, using polyethylenimine (PEI), with reporter and expression plasmids, as stated in figure’s legend. The plasmid pBluescript (Stratagene, La Jolla, CA) was used as carrier DNA to set the final amount of DNA to 5.5 µg/dish. The pCMV- ß-galactosidase expression plasmid was cotransfected as a control for transfection efficiency. […] After 16 h, cells were trypsinised and seeded in 96-well plates at the density of 2 × 10^4 cells/well and incubated for 6 h in 10% FCS containing DMEM. Cells were then incubated for 24 h in DMEM containing 0.2% FCS and increasing concentrations of the compound tested or vehicle (DMSO). At the end of the experiment, cells were washed once with ice-cold PBS and the luciferase and the β–galactosidase assays were performed as described previously[20]. Cells were incubated 24 h in the presence of indicated concentrations of compound. Luciferase activity was measured and normalised to internal control β-galactosidase activity. […] EC50 were estimated using Prism software (GraphPad). All transfection experiments were performed at least three times.

human PPARα = biological target: T2, human PPARα (Homo sapiens, UniProt Q07869); experiment: Gene reporter (transactivation) assay, Cos-7 cells transfected with pGal4-hPPARα; assay type: cell-based; conditions: for Emax: COS-7, 24 h, Emax relative to maximum activation with WY14643 (10 µM) = 100%, read-out: hPPAR gene reporter αGal4 (%); for EC50: GAL4 chimeric hPPARα, 24 h, read-out: hPPAR gene reporter αEC50;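 as to all read-outs here: luciferase signal from a Gal4-driven reporter normalised to cotransfected β-galactosidase activity, cells exposed to rising compound concentrations with DMSO vehicle as control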
T2 construct: expressed in transfected cells; host or cells: Cos-7
T2 sequence (Q07869 239-466 limits assumed): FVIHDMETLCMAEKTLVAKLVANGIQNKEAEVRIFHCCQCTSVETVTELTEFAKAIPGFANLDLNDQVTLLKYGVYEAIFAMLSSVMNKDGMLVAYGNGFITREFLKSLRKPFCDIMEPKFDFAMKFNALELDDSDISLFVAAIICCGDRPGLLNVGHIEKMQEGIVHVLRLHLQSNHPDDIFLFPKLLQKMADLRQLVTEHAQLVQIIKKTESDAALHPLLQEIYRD
Experimental: as §1

CaCO2 cells = experiment: CaCo2 cell absorption (membrane permeability model); assay type: in vitro ADME; conditions: percentage of absorption
Experimental: The in vivo effect of test compounds was determined by measuring glycaemia, triglyceridemia, insulinemia, and body weight using ob/ob mice (Table 3). The ob/ob mice were obese, insulin resistant with hypertriglyceridaemia and hyperglycaemia, and have been used as a rodent model of obesity-induced insulin resistance. […] As a side effect index, body weight was also measured daily, and body weight variation was calculated as a percentage of the difference in body weight between days 4 and 0. […] Benzoyl derivatives 32a, 41a and 42a were not evaluated in vivo with regard to their low absorption values with CaCO2 cells (< 25%), an in vitro model predicting membrane permeability. […] Indeed, incorporation of substituents such as methyl oxime ether and trifluoroethoxy group are benefiting for PPAR activity regulation and so for effective management of dyslipidemia without inducing body weight gain. […] The CF3 group incorporation, beyond keeping a good in vivo efficacy, provided a robust reduction of body weight induced with compound 44a, strengthening the beneficial pharmacological effect of C-H bond replacement with fluorine. Compound 44 b may be considered as a SPPARγM since this full PPARγ agonist retains the insulin-sensitizing and glucose-lowering actions while mitigating or eliminating the undesirable side effects.

human PPARγ [2] = biological target: T3, human PPARγ (Homo sapiens, UniProt P37231); experiment: Membrane-bound PPARγ binding assay ([3H]rosiglitazone competition, filtration); conditions: competition with [3H]rosiglitazone (4 nM), 180 min at 4 °C; read-out: Ki (nM), hPPARγ binding affinity
T3 sequence (P37231 235-505 limits assumed): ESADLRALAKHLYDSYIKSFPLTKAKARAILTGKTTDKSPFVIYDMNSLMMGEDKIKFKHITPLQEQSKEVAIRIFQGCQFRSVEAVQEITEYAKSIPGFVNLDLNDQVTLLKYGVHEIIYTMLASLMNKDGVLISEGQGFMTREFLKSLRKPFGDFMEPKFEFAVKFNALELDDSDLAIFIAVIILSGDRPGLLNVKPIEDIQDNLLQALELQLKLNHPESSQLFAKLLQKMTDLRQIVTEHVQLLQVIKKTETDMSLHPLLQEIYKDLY
Experimental: The membrane-associated PPARγ was used as the biological source as previously described. Binding buffer consisted of 10 mM Tris/HCl, pH 8.2, containing 50 mM KCl and 1 mM dithiothreitol. […] Radioactivity was measured in a TopCount apparatus (Packard).

ob/ob mice = experiment: In vivo ob/ob mice: glycaemia, triglyceridemia, insulinemia, body weight; conditions: oral, 4 days; for ΔBW (body weight variation between day 0 and day 4): expressed in % of rosiglitazone in the same study (= 100%), ob/ob mice; for ΔBW (body weight variation between day 0 and day 4) / Change (%) Gly (glycemia) / Change (%) Ins (insulin) / Change (%) TG (triglycerides): synthesised compounds 8.4 µMkg^−1, references 3 mgkg^−1; for Change (%) Gly (glycemia) / Change (%) Ins (insulin) / Change (%) TG (triglycerides): percent change versus control, ob/ob mice at day 4;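 as to all read-outs here: male ob/ob mice aged 10–12 weeks, given the compound once daily by oral gavage as a 1% hydroxyethylcellulose suspension, 8–12 animals per group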
Experimental: The glucose- and triglyceride-lowering activities of the compounds prepared were then tested using 10–12-week-old male ob/ob mice. […] Mice had access to filtered (0.22 mm) tap water ad libitum and irradiated pelleted laboratory chow (transbreed, Special Diet Services, England) throughout the study. Compounds were prepared as a suspension in 1% hydroxyethylcellulose (HEC) for oral administration (10 mLkg^−1). The mice (n = 8–12 per group) were dosed by gavage daily between 15:00 and 17:00 for 4 days. Randomisation was performed based on glycaemia values. The body weight gain (DBW in grams) of the animals was determined by measuring the difference between body weight at the beginning and end of the study for each mouse. At day 5 between 9:00 and 11:00 the mice were weighed, and blood samples were collected into heparin-containing tubes by retro-orbital puncture (500 mL per mouse). […] Plasma samples were prepared by centrifugation (2000 g for 10 min), and stored at −20 °C. For triglycerides and insulin determination, the percent change in plasma level in the treated group was calculated relative to the mean plasma level in the vehicle-treated group. ANOVA, followed by Dunnett’s comparison test (one-tailed) was used to estimate significant differences between the plasma glycaemia, triglycerides, insulin, and DBW values between the control group and the individual compound-treated groups.

Row | Compound | Emax (human PPARγ [1]) | EC50 (human PPARγ [1]) | melting point | Emax (human PPARα) | EC50 (human PPARα) | absorption with CaCO2 cells (CaCo2 permeability) (CaCO2 cells) | Ki (human PPARγ [2]) | ΔBW (body weight variation between day 0 and day 4) (ob/ob mice) | Change (%) Gly (glycemia) (ob/ob mice) | Change (%) Ins (insulin) (ob/ob mice) | Change (%) TG (triglycerides) (ob/ob mice) | in vivo activity in ob/ob mice (ob/ob mice)
1 | CCO[C@@H](Cc1ccc(OCCn2c(=O)sc3cc(/C(=N/O)c4ccccc4)ccc32)cc1)C(=O)O [Compound 43a, (S)-3-{4-[2–(6-[(E)-hydroxyimino-phenyl-methyl]-2-oxo-benzothiazol-3-yl)-ethoxy]-phenyl}-2-ethoxypropionic acid] | 123% | 16 nM | 84 to 85 °C | 153% |  |  | 0.5 nM | 113% | −55% | −29% | −33% | 
2 | CCO[C@@H](Cc1ccc(OCCn2c(=O)sc3cc(/C(=N/OC)c4ccccc4)ccc32)cc1)C(=O)O [Compound 44a, (S)-3-{4-[2–(6-[(E)-methoxyimino-phenyl-methyl]-2-oxo-benzothiazol-3-yl)-ethoxy]-phenyl}-2-ethoxypropionic acid] | 115% | 2 nM | 151 to 152 °C | 154% | 32 nM |  | 0.7 nM | 177% | −46% | −81% | −79% | 
3 | CCO[C@H](Cc1ccc(OCCn2c(=O)sc3cc(/C(=N/O)c4ccccc4)ccc32)cc1)C(=O)O [Compound 45a, (R)-3-{4-[2–(6-[(E)-hydroxyimino-phenyl-methyl]-2-oxo-benzothiazol-3-yl)-ethoxy]-phenyl}-2-ethoxypropionic acid] | 66% | 799 nM | 84 to 85 °C | 30% |  | 31% | 210 nM | 328% | −7% | 51% | 21% | inactive

More lines, main results first:

Row | Emax (human PPARγ [1]) | EC50 (human PPARγ [1]) | melting point | Emax (human PPARα) | EC50 (human PPARα) | absorption with CaCO2 cells (CaCo2 permeability) (CaCO2 cells) | Ki (human PPARγ [2]) | Compound | ΔBW (body weight variation between day 0 and day 4) (ob/ob mice) | Change (%) Gly (glycemia) (ob/ob mice) | Change (%) Ins (insulin) (ob/ob mice) | Change (%) TG (triglycerides) (ob/ob mice) | in vivo activity in ob/ob mice (ob/ob mice)
4 | ≥ 80% | 15 nM | 57 to 59 °C | ≥ 80% | 2400 nM | < 25% | 4 nM | CCOC(Cc1ccc(OCCn2c(=O)sc3cc(C(=O)c4ccccc4)ccc32)cc1)C(=O)O (centres unmarked) [Compound 32a, 3-{4-[2–(6-benzoyl-2-oxo-benzothiazol-3-yl)-ethoxy]-phenyl}-2-ethoxypropionic acid] |  |  |  |  | 
5 | 142% | 8 nM | 57 to 59 °C | 166% | 522 nM | < 25% | 0.5 nM | CCO[C@@H](Cc1ccc(OCCn2c(=O)sc3cc(C(=O)c4ccccc4)ccc32)cc1)C(=O)O [Compound 41a, (S)-3-{4-[2–(6-benzoyl-2-oxo-benzothiazol-3-yl)-ethoxy]-phenyl}-2-ethoxypropionic acid] |  |  |  |  | 
6 | 39% | 300 nM | 57 to 59 °C | 0% |  | < 25% | 70 nM | CCO[C@H](Cc1ccc(OCCn2c(=O)sc3cc(C(=O)c4ccccc4)ccc32)cc1)C(=O)O [Compound 42a, (R)-3-{4-[2–(6-benzoyl-2-oxo-benzothiazol-3-yl)-ethoxy]-phenyl}-2-ethoxypropionic acid] |  |  |  |  | 
